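Test compounds were applied to cells in 96-well plates for 48 hours at 5 doses. GI50 is the concentration that inhibits growth by half.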 Activity calls are given as the source filed them. No stated cut-off is given here; in the data, active = GI50 up to about 1.1 µM and inactive = higher.
Legend:
Experiment in all cases: NCI tumour cell line growth inhibition, 48 h
MCF7 = system: MCF7
MDA-N = system: MDA-N
NCI-H460 = system: NCI-H460
SK-OV-3 = system: SK-OV-3
DU-145 = system: DU-145
TK-10 = system: TK-10
K562 = system: K562
M14 = system: M14
UACC-62 = system: UACC-62
OVCAR-8 = system: OVCAR-8
NCI-H23 = system: NCI-H23
NCI-H226 = system: NCI-H226
SF-268 = system: SF-268
SW-620 = system: SW-620
MOLT-4 = system: MOLT-4
SNB-75 = system: SNB-75
CAKI-1 = system: CAKI-1
MDA-MB-231 = system: MDA-MB-231
OVCAR-5 = system: OVCAR-5

Compound: COc1cc(C2c3cc4c(cc3OC(NNC(N)=S)C2C)OCO4)cc(OC)c1OC (centres undefined)
- GI50 (MCF7): 0.457 µM (active)
- GI50 (MDA-N): 0.084 µM (active)
- GI50 (NCI-H460): 0.376 µM (active)
- GI50 (SK-OV-3): 0.53 µM (active)
- GI50 (DU-145): 4.17 µM (inactive)
- GI50 (TK-10): 5.12 µM (inactive)
- GI50 (K562): 0.242 µM (active)
- GI50 (M14): 0.351 µM (active)
- GI50 (UACC-62): 0.318 µM (active)
- GI50 (OVCAR-8): 0.411 µM (active)
- GI50 (NCI-H23): 0.38 µM (active)
- GI50 (NCI-H226): 0.721 µM (active)
- GI50 (SF-268): 3.33 µM (inactive)
- GI50 (SW-620): 0.363 µM (active)
- GI50 (MOLT-4): 0.374 µM (active)
- GI50 (SNB-75): 71.3 µM (inactive)
- GI50 (CAKI-1): 0.54 µM (active)
- GI50 (MDA-MB-231): 0.4 µM (active)

Compound: CC(=O)N1C(c2[nH]c3ccccc3c2Cc2ccccc2)CCN1c1ccccc1 (centres undefined)
- GI50 (MCF7): 8.45 µM (inactive)
- GI50 (MDA-N): 7.29 µM (inactive)
- GI50 (NCI-H460): 5.22 µM (inactive)
- GI50 (SK-OV-3): > 10 µM (inactive)
- GI50 (DU-145): > 10 µM (inactive)
- GI50 (TK-10): > 10 µM (inactive)
- GI50 (K562): 3.05 µM (inactive)
- GI50 (M14): 7.93 µM (inactive)
- GI50 (OVCAR-8): > 10 µM (inactive)
- GI50 (NCI-H23): 8.59 µM (inactive)
- GI50 (NCI-H226): > 10 µM (inactive)
- GI50 (SF-268): 4.72 µM (inactive)
- GI50 (SW-620): > 10 µM (inactive)
- GI50 (MOLT-4): 4.4 µM (inactive)
- GI50 (SNB-75): 5.83 µM (inactive)
- GI50 (CAKI-1): 8.47 µM (inactive)
- GI50 (MDA-MB-231): > 10 µM (inactive)
- GI50 (OVCAR-5): > 10 µM (inactive)

Compound: O=C1COC(c2ccccc2O)=NN1CCCN1CCCC1
- GI50 (MCF7): > 100 µM (inactive)
- GI50 (MDA-N): > 100 µM (inactive)
- GI50 (NCI-H460): > 100 µM (inactive)
- GI50 (SK-OV-3): > 100 µM (inactive)
- GI50 (DU-145): > 100 µM (inactive)
- GI50 (TK-10): > 100 µM (inactive)
- GI50 (M14): > 100 µM (inactive)
- GI50 (UACC-62): > 100 µM (inactive)
- GI50 (OVCAR-8): > 100 µM (inactive)
- GI50 (NCI-H23): > 100 µM (inactive)
- GI50 (NCI-H226): > 100 µM (inactive)
- GI50 (SF-268): > 100 µM (inactive)
- GI50 (SW-620): > 100 µM (inactive)
- GI50 (MOLT-4): > 100 µM (inactive)
- GI50 (SNB-75): > 100 µM (inactive)
- GI50 (CAKI-1): > 100 µM (inactive)
- GI50 (MDA-MB-231): > 100 µM (inactive)
- GI50 (OVCAR-5): > 100 µM (inactive)

Compound: C=C(C)CC1=C(OCC)C(OC)(OCC)C1=O (centres undefined)
- GI50 (MCF7): > 100 µM (inactive)
- GI50 (MDA-N): > 100 µM (inactive)
- GI50 (NCI-H460): > 100 µM (inactive)
- GI50 (SK-OV-3): > 100 µM (inactive)
- GI50 (DU-145): > 100 µM (inactive)
- GI50 (TK-10): > 100 µM (inactive)
- GI50 (M14): > 100 µM (inactive)
- GI50 (UACC-62): > 100 µM (inactive)
- GI50 (OVCAR-8): > 100 µM (inactive)
- GI50 (NCI-H23): > 100 µM (inactive)
- GI50 (NCI-H226): > 100 µM (inactive)
- GI50 (SF-268): > 100 µM (inactive)
- GI50 (SW-620): > 100 µM (inactive)
- GI50 (MOLT-4): > 100 µM (inactive)
- GI50 (SNB-75): > 100 µM (inactive)
- GI50 (CAKI-1): > 100 µM (inactive)
- GI50 (MDA-MB-231): > 100 µM (inactive)
- GI50 (OVCAR-5): > 100 µM (inactive)

Compound: COc1cc2oc(-c3ccc(O)cc3)c(OC3OC(C)C(O)C(O)C3O)c(=O)c2c(O)c1OC (centres undefined)
- GI50 (MCF7): 55.7 µM (inactive)
- GI50 (MDA-N): > 100 µM (inactive)
- GI50 (NCI-H460): 45.8 µM (inactive)
- GI50 (SK-OV-3): > 100 µM (inactive)
- GI50 (DU-145): 99.8 µM (inactive)
- GI50 (TK-10): > 100 µM (inactive)
- GI50 (K562): 54.3 µM (inactive)
- GI50 (M14): > 100 µM (inactive)
- GI50 (UACC-62): 75.5 µM (inactive)
- GI50 (OVCAR-8): 91 µM (inactive)
- GI50 (NCI-H23): 36.5 µM (inactive)
- GI50 (NCI-H226): > 100 µM (inactive)
- GI50 (SF-268): > 100 µM (inactive)
- GI50 (SW-620): 92.7 µM (inactive)
- GI50 (MOLT-4): 33 µM (inactive)
- GI50 (SNB-75): > 100 µM (inactive)
- GI50 (CAKI-1): > 100 µM (inactive)
- GI50 (MDA-MB-231): > 100 µM (inactive)
- GI50 (OVCAR-5): > 100 µM (inactive)

Compound: CC(C)C(C=O)C(O)(C(F)(F)F)C(F)(F)F (centres undefined)
- GI50 (MCF7): > 100 µM (inactive)
- GI50 (MDA-N): > 100 µM (inactive)
- GI50 (NCI-H460): > 100 µM (inactive)
- GI50 (SK-OV-3): > 100 µM (inactive)
- GI50 (DU-145): > 100 µM (inactive)
- GI50 (TK-10): > 100 µM (inactive)
- GI50 (K562): > 100 µM (inactive)
- GI50 (M14): > 100 µM (inactive)
- GI50 (UACC-62): > 100 µM (inactive)
- GI50 (OVCAR-8): > 100 µM (inactive)
- GI50 (NCI-H23): > 100 µM (inactive)
- GI50 (NCI-H226): > 100 µM (inactive)
- GI50 (SW-620): > 100 µM (inactive)
- GI50 (MOLT-4): > 100 µM (inactive)
- GI50 (SNB-75): 11.3 µM (inactive)
- GI50 (CAKI-1): > 100 µM (inactive)
- GI50 (MDA-MB-231): > 100 µM (inactive)
- GI50 (OVCAR-5): > 100 µM (inactive)
